Measurements: patent US10231960B2, “Methylphenidate-prodrugs, processes of making and using the same” (KemPharm, Inc., priority 2011, dated 2019)
Converted amounts (≈) assume the structure as drawn.

Key:
[1] = Oral PK in rats: plasma methylphenidate released from conjugates vs unconjugated methylphenidate (LC-MS/MS); conditions: oral gavage; for Tmax: Tmax (Methylphenidate)
Excerpt: Exemplary prodrug conjugates of the present technology were synthesized as described above. The oral plasma concentrations of methylphenidate released from nicotinate-CH2OCO-MPH, phosphate-CH2OCO-MPH, gallate-CH2OCO-MPH, lactate-CH2OCO-MPH, MPH-CO2CH2-nicotinoyl-Asp, MPH-CO2CH2-nicotinoyl-Val, MPH-CO2CH2-nicotinoyl-Gly-Ala, Val-6-aminohexanoate-CH2OCO-MPH, MPH-CO2CH2-nicotinamide, 6-aminohexanoate-CH2OCO-MPH, MPH-CO2CH2-nicotinoyl-O^tBu, MPH-CO2CH2-nicotinate, MPH-CO2CH2-nicotinoyl-OEL MPH-CO2CH2-pyridine, isonicotinate-CH2OCO-MPH and phosphate-(p-salicylate)-CH2OCO-MPH were compared with unconjugated methylphenidate after oral administration in rats. Rats were dosed with oral solutions of the conjugated prodrugs in an amount equivalent to 2 mg/kg of methylphenidate free base and compared to an equimolar solution of unconjugated methylphenidate hydrochloride.
The plasma concentrations of methylphenidate were measured by LC-MS/MS over time.
The dosing vehicles for the PK experiments are as follows: FIG. 13—10% Tween in water. FIGS. 14 and 15—water. FIG. 16—conjugate in 50% PEG-400 in water; control: water. FIG. 17—50% PEG-400 in water. FIG. 18—10% Tween in water. FIGS. 19-27—water. FIGS. 28 and 29—phosphate buffered saline (PBS). FIG. 30—10% Tween in water.

[2] = Intravenous PK in rats: plasma methylphenidate released from conjugates vs unconjugated methylphenidate; type: in vivo; conditions: rat, unconjugated methylphenidate comparator, dosed intravenously
Excerpt: (§1) FIGS. 14 and 15—water. […] FIG. 17—50% PEG-400 in water. FIG. 18—10% Tween in water. FIGS. 19-27—water. FIGS. 28 and 29—phosphate buffered saline (PBS). FIG. 30—10% Tween in water.

[3] = Intranasal PK in rats: plasma methylphenidate released from conjugates vs unconjugated methylphenidate; type: in vivo; conditions: rat, inhaled or intranasal, unconjugated methylphenidate comparator, dosed intranasally
Excerpt: as §1

[4] = water, at 32° C.; cited from earlier work
[5] = Water solubility at ambient temperature; type: physicochemical
Procedure: The water solubility of phosphate-CH2OCO-methylphenidate and unconjugated methylphenidate was determined at ambient temperature and the results are found in Table 5.

[6] = conjugate relative to unconjugated methylphenidate
[7] = plasma methylphenidate released from conjugate, equivalent to 2 mg/kg methylphenidate free base
[8] = read-out: AUC0-4 h (Methylphenidate)
[9] = conjugate relative to methylphenidate hydrochloride from combined data of six studies
[10] = calculated from combined data of three studies (footnote a)

COC(=O)C(c1ccccc1)C1CCCCN1C(=O)OCOC(=O)CCCCCN (centres unmarked) [6-Aminohexanoate-CH2OCO-MPH, (6-aminohexanoyloxy)methyl methylphenidate-1-carboxylate]
AUC-% [1, 6]: 82%
Cmax-% [1, 6]: 109%
Tmax-% [1, 6]: 88%
AUC0-4 h (Conjugate) [1, 7]: 145.6 ng·h/mL
Cmax (Conjugate) [1, 7]: 173.5 ng/mL
Tmax (Conjugate) [1, 7]: 21 min

COC(=O)C(c1ccccc1)C1CCCCN1C(=O)OCOC(=O)C(C)O (centres unmarked) [Lactate-CH2OCO-MPH, lactate-CH2OCO-MPH]
AUC-% [1, 6]: 73%
Cmax-% [1, 6]: 75%
Tmax-% [1, 6]: 120%
AUC0-4 h (Conjugate) [1, 7]: 132.3 ng·h/mL
Cmax (Conjugate) [1, 7]: 122.5 ng/mL
Tmax (Conjugate) [1, 7]: 18 min

COC(=O)C(c1ccccc1)C1CCCCN1 (centres unmarked) [Methylphenidate, methyl phenyl(piperidin-2-yl)acetate]
Cmax [2]: 296 ng/mL
Tmax [2]: 31 min
AUC(0-t) [2, 8]: 320 ng·h/mL
Cmax [3]: 2210 ng/mL
Tmax [3]: 6.96 min
AUC(0-t) [3, 8]: 1050 ng·h/mL
AUC(0-t) ([1]; rat, plasma, po, 2 mg/kg, AUC0-4 h (Methylphenidate), methylphenidate hydrochloride, combined data of six studies (footnotes a, b)): 106 ng·h/mL
Cmax ([1]; rat, plasma, po, 2 mg/kg, Cmax (Methylphenidate), methylphenidate hydrochloride, combined data of six studies (footnotes a, b)): 114 ng/mL
Tmax ([1]; rat, plasma, po, 2 mg/kg, methylphenidate hydrochloride, combined data of six studies (footnotes a, b)): 17 min
Tmax ([1]; rat, plasma, po, 2 mg/kg, unconjugated methylphenidate hydrochloride comparator of the same row, equimolar): 15 min
Solubility data found in the literature [4]: 191 mg/mL (≈ 819 mM)
solubility ([5]; water): 169 mg/mL (≈ 724 mM)

COC(=O)C(c1ccccc1)C1CCCCN1C(=O)OCOP(=O)(O)O (centres unmarked) [Phosphate-CH2OCO-MPH, phosphate-CH2OCO-MPH]
AUC-% [1, 9]: 146%
Cmax-% [1, 9]: 140%
Tmax-% [1, 9]: 88%
AUC-% [1, 6]: 185%
Cmax-% [1, 6]: 144%
Tmax-% [1, 6]: 100%
AUC0-4 h (Conjugate) [1, 10]: 154.5 ng·h/mL
Cmax (Conjugate) [1, 10]: 158.9 ng/mL
Tmax (Conjugate) [1, 10]: 15 min
AUC0-4 h (Conjugate) [1, 7]: 110.8 ng·h/mL
Cmax (Conjugate) [1, 7]: 110.8 ng/mL
Tmax (Conjugate) [1, 7]: 15 min
Solubility in Water [5]: 432 mg/mL
Water solubility relative to the unconjugated form ([5]; vs unconjugated methylphenidate hydrochloride): about 2.5 times

COC(=O)C(c1ccccc1)C1CCCCN1C(=O)OCOC(=O)CCCCCNC(=O)C(N)C(C)C (centres unmarked) [Val-6-aminohexanoate-CH2OCO-MPH]
AUC-% [1, 6]: 58%
Cmax-% [1, 6]: 59%
Tmax-% [1, 6]: 83%
AUC0-4 h (Conjugate) [1, 7]: 44.9 ng·h/mL
Cmax (Conjugate) [1, 7]: 52.7 ng/mL
Tmax (Conjugate) [1, 7]: 15 min
